The values that follow come from patent US9657018B2, “Antagonists acting at multiple prostaglandin receptors for the treatment of inflammation” (Allergan, Inc., priority 2014, dated 2017).

Common to all, as to type: cell-based
Experiment [1] concerns the target T1, human prostanoid DP1 receptor (Homo sapiens, UniProt Q13258).
T1 construct: expressed in transfected cells
T1 sequence (Q13258 1-359): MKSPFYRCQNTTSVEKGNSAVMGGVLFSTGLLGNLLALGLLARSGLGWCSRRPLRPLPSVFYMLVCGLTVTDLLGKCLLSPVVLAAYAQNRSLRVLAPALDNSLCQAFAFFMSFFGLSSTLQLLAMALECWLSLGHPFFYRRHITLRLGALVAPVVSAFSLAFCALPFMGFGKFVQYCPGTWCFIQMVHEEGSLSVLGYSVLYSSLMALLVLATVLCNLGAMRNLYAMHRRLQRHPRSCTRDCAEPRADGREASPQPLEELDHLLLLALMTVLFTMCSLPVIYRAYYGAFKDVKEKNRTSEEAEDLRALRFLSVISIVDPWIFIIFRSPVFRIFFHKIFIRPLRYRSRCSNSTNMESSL
Description: FLIPR Ca2+ signaling antagonist assay, DP1 receptor stable cell line. Details: key to FLIPR data DP1 (Kb): PAg = partial agonist; Ag = agonist; NA = not active. The settings on record: human recombinant DP1 + chimeric Gqs in HEK-293 EBNA cells; standard agonist BW 245C; NA = no antagonism or Kb>=10,000 nM. As to the method:
(§1) The above compounds were tested for PG antagonist activity as follows using human recombinant prostanoid receptor (DP1, EP1-4, FP, IP and TP) stable cell lines:
(§2) In order to measure the response of Gs and Gi coupled prostanoid receptors as a Ca^2+ signal, chimeric G protein cDNAs were used. Stable cell lines over-expressing human prostanoid DP1, EP1-4, FP, IP, and TP receptors were established as follows:
(§3) Briefly, human prostanoid DP1, EP2, and EP4 receptor cDNAs were co-transfected with chimeric Gqs cDNA containing a haemagglutanin (HA) epitope; human prostanoid EP3 receptors were co-transfected with chimeric Gqi-HA; human EP1, FP, IP, and TP receptor cDNAs were expressed with no exogenous G-proteins. Gqs and Gqi chimeric cDNAs (Molecular Devices, Sunnyvale, Calif., U.S.A.), as well as cDNAs of prostanoid receptors, were cloned into a pCEP4 vector with a hygromycin B selection marker. Transfection into HEK-293 EBNA (Epstein-Barr virus nuclear antigen) cells was achieved by the FuGENE 6 transfection Reagent (Roche Applied Science, Indianapolis, Ind., USA). Stable transfectants were selected according to hygromycin resistance. Because Gqs and Gqi contained an HA epitope, G-protein expression was detected by Western blotting analysis using anti-mouse HA monoclonal antibody and horseradish peroxidase (HRP)-conjugated secondary antibody, while functional expression of prostanoid receptors was detected by FLIPR screening (Matias et al., 2004). These stable cell lines were validated using previously published antagonists at 10 μM against serial dilutions of standard agonists by FLIPR functional assays for Ca^2+ Signaling (as described below).
(§4) Ca^2+ signaling studies were performed using a FLIPR TETRA system (Molecular Devices, Sunnyvale, Calif., USA) in the 384-format. This is a high-throughput instrument for cell-based assays to monitor Ca^2+ signaling associated with GPCRs and ion channels. Cells were seeded at a density of 5×10^4 cells/well in BioCoat poly-D-lysine coated, black wall, clear bottom 384-well plates (BD Biosciences, Franklin lakes, NJ, USA) and allowed to attach overnight in an incubator at 37° C. The cells were then washed twice with HBSS-HEPES buffer (Hanks' balanced salt solution without bicarbonate and phenol red, 20 mM HEPES, pH 7.4) using an ELx405 Select CW Microplate Washer (BioTek, Winooski, Vt., USA). After 60 min of dye-loading in the dark using the Ca^2+-sensitive dye Fluo-4AM (Invitrogen, Carlsbad, Calif., USA), at a final concentration of 2×10^−6M, the plates were washed 4 times with HBSS-HEPES buffer to remove excess dye and leaving 50 μl of buffer in each well. The plates were then placed in the FLIPR TETRA instrument and allowed to equilibrate at 37° C. AGN-211377 was added in a 25 μl volume to each well to give final concentrations of 0.1 μl. M, 0.4M, 1 μM, 3 μl. M, 10 μl. M, and 30 μl. M; or 0.067 μM, 0.4M, 0.67 μM, and 1 μM for cells over-expressing TP receptors. After 4.5 minutes, a 7-point serial dilution of the standard agonist for the corresponding receptor, in a 25 μl volume was injected at the final concentrations from 10^−11M to 10^−5M in 10-fold serial dilution increments for cells expressing human recombinant DP1, EP1, EP2, EP3, EP4, FP, and IP receptors. The dose range for the standard agonist for human recombinant TP receptors was from 10^−12M to 10^−6M. HBSS-HEPES buffer was used as the negative control for the standard agonists. Cells were excited with LED (light emitting diode) excitation at 470-495 nm and emission was measured through an emission filter at 515-575 nm. Assay plates were read for 3.5 minutes using the FLIPR^TETRA. The peak increase in fluorescence intensity was recorded for each well. On each plate, negative controls, dose response of positive controls, and co-treatments of antagonist-agonist for each dose were in triplicates. Standard agonists were as follows: DP=BW 245C, EP1-EP4=PGE2, FP=17-phenyl-PGF2a, IP=Cicaprost, and TP=U-46619. […]

The target in experiment [2] is T2, human prostanoid EP2 receptor (Homo sapiens, UniProt P43116).
T2 construct: expressed in transfected cells
Kind of experiment: FLIPR Ca2+ signaling antagonist assay, EP2 receptor stable cell line. Also on record: key to FLIPR data EP2 (Kb): PAg = partial agonist; Ag = agonist; NA = not active. The settings on record: human recombinant EP2 + chimeric Gqs in HEK-293 EBNA cells; standard agonist PGE2; NA = no antagonism or Kb>=10,000 nM. On the procedure: as §1, §2, §3, §4

The target in experiment [3] is T3, human prostanoid EP3 receptor (Homo sapiens, UniProt P43115).
T3 construct: expressed in transfected cells
T3 sequence (P43115 1-390): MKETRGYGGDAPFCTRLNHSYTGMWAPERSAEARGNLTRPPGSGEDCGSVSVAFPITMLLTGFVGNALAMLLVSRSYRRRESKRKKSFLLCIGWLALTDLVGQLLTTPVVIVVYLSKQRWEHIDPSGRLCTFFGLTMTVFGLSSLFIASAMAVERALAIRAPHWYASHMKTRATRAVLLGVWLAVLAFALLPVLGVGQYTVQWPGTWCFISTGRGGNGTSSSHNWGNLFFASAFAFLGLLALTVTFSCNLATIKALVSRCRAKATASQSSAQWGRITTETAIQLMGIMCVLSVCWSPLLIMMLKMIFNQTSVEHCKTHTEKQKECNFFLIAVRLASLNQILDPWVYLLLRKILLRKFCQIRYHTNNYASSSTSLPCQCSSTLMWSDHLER
Kind of experiment: FLIPR Ca2+ signaling antagonist assay, EP3 receptor stable cell line. The note with it: human recombinant EP3 + chimeric Gqi in HEK-293 EBNA cells; standard agonist PGE2; NA = no antagonism or Kb>=10,000 nM. As to the method:
as §1, §2, §3, §4

For experiment [4], the target named is T4, human prostanoid EP4 receptor (Homo sapiens, UniProt P35408).
T4 construct: expressed in transfected cells
Description: FLIPR Ca2+ signaling antagonist assay, EP4 receptor stable cell line. The note with it: human recombinant EP4 + chimeric Gqs in HEK-293 EBNA cells; standard agonist PGE2; NA = no antagonism or Kb>=10,000 nM. As to the method: as §1, §2, §3, §4

Where a name gives a salt, the structure may show the parent alone.

T2 sequence (P43116 whole entry): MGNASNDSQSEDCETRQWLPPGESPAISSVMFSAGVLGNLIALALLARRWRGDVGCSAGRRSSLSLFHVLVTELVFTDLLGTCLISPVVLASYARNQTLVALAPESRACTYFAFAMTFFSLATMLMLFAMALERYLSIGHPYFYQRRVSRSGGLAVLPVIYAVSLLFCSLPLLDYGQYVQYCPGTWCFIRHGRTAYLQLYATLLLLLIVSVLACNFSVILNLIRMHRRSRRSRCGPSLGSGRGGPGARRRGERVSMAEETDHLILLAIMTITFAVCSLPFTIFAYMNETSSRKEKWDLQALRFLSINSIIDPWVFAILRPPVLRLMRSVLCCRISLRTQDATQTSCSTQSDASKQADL
T4 sequence (P35408 whole entry): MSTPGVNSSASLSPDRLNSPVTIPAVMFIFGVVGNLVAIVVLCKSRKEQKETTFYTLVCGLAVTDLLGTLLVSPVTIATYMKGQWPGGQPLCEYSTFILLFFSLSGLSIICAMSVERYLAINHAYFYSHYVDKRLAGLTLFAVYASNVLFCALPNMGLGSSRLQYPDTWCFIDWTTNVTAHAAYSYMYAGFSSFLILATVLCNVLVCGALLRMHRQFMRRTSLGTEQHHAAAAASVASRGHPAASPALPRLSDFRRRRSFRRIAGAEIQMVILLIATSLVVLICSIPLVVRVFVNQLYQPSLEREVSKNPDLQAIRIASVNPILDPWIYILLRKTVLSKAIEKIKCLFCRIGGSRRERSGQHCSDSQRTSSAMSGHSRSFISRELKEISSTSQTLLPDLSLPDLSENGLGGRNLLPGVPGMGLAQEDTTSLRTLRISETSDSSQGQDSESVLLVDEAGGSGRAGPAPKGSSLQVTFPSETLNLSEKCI

A word on the Kb: it is the equilibrium dissociation constant of an antagonist, usually derived from a functional assay. Take `CC(C)Cn1ncc2cc(Cl)cc(Cn3ncc4cc(C(=O)O)ccc43)c21` [Compound 41, 1-(5-Chloro-1-isobutyl-1H-indazol-7-ylmethyl)-1H-indazole-5-carboxylic acid]: the Kb in experiment [1] was 0.46 µM; in experiment [2] it was 9.2 µM; in experiment [3], more than 10 µM; in experiment [4], 0.024 µM.

For the molecule `CC(C)Cn1ncc2cc(Br)cc(Cn3ncc4cc(C(=O)O)ccc43)c21` [Compound 42, 1-(5-Bromo-1-isobutyl-1H-indazol-7-ylmethyl)-1H-indazole-5-carboxylic acid], the Kb in experiment [1] was 0.59 µM; in experiment [2], more than 10 µM; in experiment [3] it was more than 10 µM; in experiment [4] it was 0.022 µM.

With `CC(C)Cn1ncc2cc(F)cc(Cn3ncc4cc(C(=O)O)ccc43)c21` [Compound 43, 1-(5-Fluoro-1-isobutyl-1H-indazol-7-ylmethyl)-1H-indazole-5-carboxylic acid], the Kb was 1.7 µM in experiment [1], more than 10 µM in experiment [2], more than 10 µM in experiment [3] and 0.1 µM in experiment [4].

Turning to `CC(C)Cn1ncc2cc(C(F)(F)F)cc(Cn3ncc4cc(C(=O)O)ccc43)c21` [Compound 44, 1-(1-Isobutyl-5-trifluoromethyl-1H-indazol-7-ylmethyl)-1H-indazole-5-carboxylic acid], the Kb in experiment [1] was 1 µM; in experiment [3] it was more than 10 µM; in experiment [4], 0.028 µM. For the same molecule, the “FLIPR data EP2 (Kb)” value in experiment [2] is reported as “PAg”.

Take `CC(C)Cn1ncc2cc(OC(F)(F)F)cc(Cn3ncc4cc(C(=O)O)ccc43)c21` [Compound 45, 1-(1-Isobutyl-5-trifluoromethoxy-1H-indazol-7-ylmethyl)-1H-indazole-5-carboxylic acid]: the antagonist dissociation constant (Kb) in experiment [1] is 0.3 µM; in experiment [2] it was more than 10 µM; in experiment [3], more than 10 µM; in experiment [4], 0.005 µM.

Turning to `CC(C)n1ncc2cc(Br)cc(Cn3ncc4cc(C(=O)O)ccc43)c21` [Compound 46, 1-(5-Bromo-1-isopropyl-1H-indazol-7-ylmethyl)-1H-indazole-5-carboxylic acid], the Kb in experiment [1] was more than 10 µM; in experiment [2], more than 10 µM; in experiment [3], more than 10 µM; in experiment [4], 0.33 µM.

`CCC(CC)Cn1ncc2cc(Br)cc(Cn3ncc4cc(C(=O)O)ccc43)c21` [Compound 47, 1-[5-Bromo-1-(2-ethyl-butyl)-1H-indazol-7-ylmethyl]-1H-indazole-5-carboxylic acid]: the Kb was 1.4 µM in experiment [1], 5 µM in experiment [2], more than 10 µM in experiment [3] and 1.7 µM in experiment [4].

Turning to `CCCn1ncc2cc(Cl)cc(Cn3ncc4cc(C(=O)O)ccc43)c21` [Compound 48], the Kb is 5.5 µM in experiment [1], more than 10 µM in experiment [2], more than 10 µM in experiment [3] and 0.13 µM in experiment [4].

For the molecule `CC(C)Cn1ncc2cc(Cl)cc(Cn3ncc4cc(C(=O)O)cnc43)c21` [Compound 49, 1-(5-Chloro-1-isobutyl-1H-indazol-7-ylmethyl)-1H-pyrazolo[3,4-b]pyridine-5-carboxylic acid], the Kb in experiment [1] was 3.5 µM; in experiment [2], more than 10 µM; in experiment [3], more than 10 µM; in experiment [4] it was 0.09 µM.

Take `CC(C)Cn1ncc2cc(Cl)cc(Cn3cnc4cc(C(=O)O)ccc43)c21` [Compound 50, 1-(5-Chloro-1-isobutyl-1H-indazol-7-ylmethyl)-1H-benzoimidazole-5-carboxylic acid]: the Kb was more than 10 µM in experiment [1], more than 10 µM in experiment [2], more than 10 µM in experiment [3] and 0.08 µM in experiment [4].

In the case of `CC(C)Cn1ncc2cc(Cl)cc(Cn3cnc4cc(C(=O)O)cnc43)c21` [Compound 51, 3-(5-Chloro-1-isobutyl-1H-indazol-7-ylmethyl)-3H-imidazo[4,5-b]pyridine-6-carboxylic acid], the Kb was more than 10 µM in experiment [1], more than 10 µM in experiment [2], more than 10 µM in experiment [3] and 0.28 µM in experiment [4].

As to `CC(C)Cn1ncc2cc(Cl)cc(Cn3ccc4cc(C(=O)O)cnc43)c21` [Compound 52, 1-(5-Chloro-1-isobutyl-1H-indazol-7-ylmethyl)-1H-pyrrolo[2,3-b]pyridine-5-carboxylic acid], in experiment [1], the “FLIPR data DP1 (Kb)” value is reported as “Ag”. Besides, the Kb is more than 10 µM in experiment [2], 3.4 µM in experiment [3] and 0.09 µM in experiment [4].

`Cc1nn(Cc2cc(Br)cc3cnn(CC(C)C)c23)c2ccc(C(=O)O)cc12` [Compound 53, 1-(5-Bromo-1-isobutyl-1H-indazol-7-ylmethyl)-3-methyl-1H-indazole-5-carboxylic acid]: the Kb in experiment [1] was 0.64 µM; in experiment [2] it was more than 10 µM; in experiment [3], more than 10 µM; in experiment [4], 0.09 µM.

Regarding `Cc1nn(Cc2cc(Br)cc3cnn(CC(C)C)c23)c2ncc(C(=O)O)cc12` [Compound 54, 1-(5-Bromo-1-isobutyl-1H-indazol-7-ylmethyl)-3-methyl-1H-pyrazolo[3,4-b]pyridine-5-carboxylic HCl salt], the Kb in experiment [1] is 0.2 µM; in experiment [2] it was more than 10 µM; in experiment [3] it was more than 10 µM; in experiment [4], 0.38 µM.

On to `CC(C)Cn1ncc2cc(C(F)(F)F)cc(Cn3cnc4cc(C(=O)O)ccc43)c21` [Compound 55, 1-(1-Isobutyl-5-trifluoromethyl-1H-indazol-7-ylmethyl)-1H-benzoimidazole-5-carboxylic acid], for which the Kb was more than 10 µM in experiment [1], more than 10 µM in experiment [2], more than 10 µM in experiment [3] and 0.08 µM in experiment [4].
